We go through four molecules from patent US11059854B2, “Method for preparing steroid derivative FXR agonist” (Chia Tai Tianqing Pharmaceutical Group Co., Ltd., priority 2017, dated 2021).

The nature of data set [1]: Liver-blood ratio experiment of mice via cassette dosing. Type of data set: in vivo, C57BL/6J male mice. Conditions: for Liver concentration 0.5 h / Liver/plasma concentration ratio 0.5 h / Plasma concentration 0.5 h / Liver concentration 3 h / Liver/plasma concentration ratio 3 h / Plasma concentration 3 h: oral cassette 2 mg/kg/compound. The method, then:
Six C57BL/6J male mice were grouped as one oral group. The preparation contained 5 kinds of the developed drugs, and 2 mg/kg/compound was intragastrically administered (the solvent was 0.5% HPMC aqueous solution). The five compounds were firstly dissolved in the solvent, respectively, by ultrasonication or vortex, to form 1 mg/mL solutions (clear solution or suspension), and then the solutions of the five compound were mixed in equal volumes (1:1:1:1:1, v:v:v:v:v) in a glass bottle. After intragastrical oral administration, plasma and liver tissue samples were collected from 3 animals at 0.5 hours after administration; corresponding samples were collected from the other 3 animals at 3 hours after administration. After collection, the liver tissue was homogenized by using ice-cold homogenization buffer (methanol: 15 mM PBS buffer (pH 7.4)=1:2, v:v) according to liver weight: homogenization buffer volume=1:3. Plasma and liver tissue samples were analyzed by using a five-in-one LC-MS/MS analysis method developed in advance. Plasma concentrations and liver tissue homogenate concentrations were obtained, and the concentration ratio of liver tissue to plasma was calculated by using Excel.

The target in data set [2] is T1, glutathione-S-transferase-labeled FXR human protein (Homo sapiens, UniProt Q96RI1).
T1 construct: purchased Invitrogen
T1 sequence (Q96RI1 1-486): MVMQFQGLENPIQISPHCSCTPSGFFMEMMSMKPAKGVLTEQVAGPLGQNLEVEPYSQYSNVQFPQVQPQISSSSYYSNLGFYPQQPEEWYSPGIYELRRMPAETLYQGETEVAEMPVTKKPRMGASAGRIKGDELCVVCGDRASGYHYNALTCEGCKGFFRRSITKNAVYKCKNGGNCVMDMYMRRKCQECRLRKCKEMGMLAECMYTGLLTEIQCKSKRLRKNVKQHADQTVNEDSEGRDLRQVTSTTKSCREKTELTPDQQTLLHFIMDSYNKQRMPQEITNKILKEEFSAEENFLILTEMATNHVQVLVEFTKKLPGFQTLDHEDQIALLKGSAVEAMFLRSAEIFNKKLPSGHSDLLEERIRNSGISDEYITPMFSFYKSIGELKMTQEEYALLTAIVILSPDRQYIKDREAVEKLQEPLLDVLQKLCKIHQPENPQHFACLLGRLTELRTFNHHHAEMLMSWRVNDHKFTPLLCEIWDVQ
In words: FXR biochemical experiment (alphascreen, coactivator recruitment). The note with it: for FXR enzymatic activity Efficacy: highest signal relative to highest signal of the reference compound; for EC50: alphascreen, GST-FXR human protein with biotin-labeled steroid receptor coactivator, read-out: FXR enzymatic activity EC50. A general note: Bead proximity is the source of the signal in Alpha formats.
Experimental: FXR Biochemical Experiment
The activation of compounds on FXR binding reaction was examined by a homogeneous proximity luminescenceamplification test (alphascreen).
Protein: glutathione-S-transferase-labeled FXR human protein (Invitrogen)
Co-activator: Biotin-labeled steroid receptor coactivator (Anaspec)
Detection reagent: homogeneous proximity luminescence amplification test (alphascreen) Detection Kit (PerkinElmer)
Compound dilution: the test compound was prepared as a 40 μM DMSO solution, and then diluted 3-fold to 10 concentration points. The reference compound was prepared as a 400 μM DMSO solution, followed by diluted 1.5-fold to 10 concentration points. The diluted DMSO solution was added to the wells of a 384-well plate in a volume of 150 nL per well.
Glutathione-S-transferase-labeled FXR human protein and biotin-labeled steroid receptor coactivator were formulated as mixed solutions with concentrations of 0.4 nM and 30 nM, respectively, which was added to the wells of the 384-well plate in a volume of 15 per well, and the plate was incubated for 1 hour at room temperature.
The experiment process was carried out with protecting from light. The incubation was performed for 1 hour at room temperature.
The experiment process was carried out by protecting from light. The incubation was performed for 1 hour at room temperature.

For data set [3], the target named is T2, FXR (FXR HEK 293T DA cell line) (Homo sapiens, UniProt Q96RI1).
T2 construct: The UAS-driven beta-lactamase is the reporter
T2 sequence (Q96RI1 262-486 limits assumed): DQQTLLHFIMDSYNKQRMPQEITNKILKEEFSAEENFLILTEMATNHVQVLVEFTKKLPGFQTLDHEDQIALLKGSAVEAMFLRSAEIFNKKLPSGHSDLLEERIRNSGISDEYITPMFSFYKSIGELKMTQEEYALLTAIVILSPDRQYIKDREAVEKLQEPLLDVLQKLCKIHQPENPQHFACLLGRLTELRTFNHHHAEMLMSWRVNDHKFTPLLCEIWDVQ
In words: FXR cell experiment (β-lactamase reporter gene). In kind it is cell-based. The method, then: 2. Cell culture medium: DMEM medium supplemented with 10% serum and Penicillin/Streptomycin (1×).
3. Detection reagent: GeneBLAzer® Reporter Gene Detection Kit (Invitrogen)
1. Compound dilution: the test compound was prepared as a 100 μM DMSO solution, and then the compound was diluted 3-fold to 10 concentration points. The reference compound was prepared as a 100 μM DMSO solution, and then diluted 1.3-fold to 10 concentration points. The diluted DMSO solution was added to the wells of a 384-well plate in a volume of 200 nL per well.
3. The 384-well microplate was incubated at 37° C., 5% CO2 for 16 hours.
4. 6 μL of 1 mM LiveBLAzer™-FRET B/G (CCF4-AM) substrate was mixed with 60 μL of B solution and 934 μL of C solution, which was added to the wells of a 384-well plate in a volume of 8 μL per well.
5. The 384-well microplate was incubated in dark for 2 hours at room temperature.
7. Analytical data: the data were analyzed by using Prism 5.0 to calculate the EC50 value of the activation of the compound.
A general note: Reporter assays use an easily measured gene product as a stand-in for the process of interest.

Data set [4] can be described thus: Pharmacokinetics in mice administrated with single compound. Type of data set: in vivo, C57BL/6J male mice. Conditions: for drug exposure compared with obeticholic acid / peak concentration compared with obeticholic acid: oral, same dosage (10 mg/kg), in words. The method, then:
Twelve C57BL/6J male mice were randomly divided into two groups, 6 mice in each group. […] Plasma (using K2-EDTA as anticoagulant) samples were taken at 0.083, 0.25, 0.5, 1, 2, 4, 6, 8 and 24 hours after administration for the intravenous group; and plasma samples were taken at 0.25, 0.5, 1, 2, 4, 6, 8 and 24 hours after administration for the oral group. For 6 animals in each group, blood samples were collected for 3 animals at one time point, and the first batch of 3 animals was alternately sampled with the second batch of 3 animals. Plasma sample analysis was performed by using LC-MS/MS. The obtained plasma concentrations were plotted against time, and PK parameters were calculated by using Phoenix WinNonlin 6.3.

Where [5] appears, read: oral, same dosage (2 mg/kg), 0.5 hours and 3 hours, in words.
Setting [6] is: male, C57BL/6J, mouse, plasma, oral (intragastric) 10 mg/kg, 0.5% HPMC.

Each structure is given as a SMILES string.

As usually defined, the EC50 is the midpoint of the concentration-response curve. Broadly, the AUC is the area under the concentration-time curve, a measure of exposure. Broadly, the Cmax is the maximum level reached in the sampled fluid or tissue. Usually Tmax stands for the time from dosing to the highest level.

For the molecule `CC[C@H]1[C@@H](O)[C@@H]2[C@H](CC[C@]3(C)[C@@H]([C@H](C)CCC(=O)O)CC[C@@H]23)[C@@]2(C)CC[C@@H](O)C[C@@H]12` [Obeticholic acid, obeticholic acid, reference compound], in data set [1], the “Liver concentration 0.5 h” value was 711 nM, the “Liver/plasma concentration ratio 0.5 h” value turned out to be 5, the “Plasma concentration 0.5 h” value came out at 151 nM and the “Liver concentration 3 h” value is 625 nM. In data set [1], the “Liver/plasma concentration ratio 3 h” value was 10 and the “Plasma concentration 3 h” value came out at 63 nM.

Regarding `CC[C@H]1[C@@H](O)[C@@H]2[C@H](CC[C@]3(C)[C@@H]([C@H](C)CCOc4ncc(C(=O)O)cc4Cl)CC[C@@H]23)[C@@]2(C)CC[C@@H](O)C[C@@H]12` [The compound of formula I-Cl], in data set [2], the “FXR enzymatic activity Efficacy” value was determined as 248%. For the same molecule, the half-maximal effective concentration (EC50) in data set [3] (FXR HEK 293T DA cells, β-lactamase reporter, 16 hours, read-out: FXR cell viability EC50) came to 3 nM. Moreover, the “FXR cell viability Efficacy” value in data set [3] (highest signal relative to reference compound CDCA) amounted to 150%. Also, in data set [4], the “drug exposure compared with obeticholic acid” value is “higher than that of the control compound obeticholic acid” and the “peak concentration compared with obeticholic acid” value is “higher than that of the control compound obeticholic acid”.

With `CC[C@H]1[C@@H](O)[C@@H]2[C@H](CC[C@]3(C)[C@@H]([C@H](C)CCOc4ncc(C(=O)O)cc4F)CC[C@@H]23)[C@@]2(C)CC[C@@H](O)C[C@@H]12` [The compound of formula I-F], in data set [2], the concentration giving a half-maximal response (EC50) amounted to 2.5 nM and the “FXR enzymatic activity Efficacy” value is 138%.

With `CC[C@H]1[C@@H](O)[C@@H]2[C@H](CC[C@]3(C)[C@@H]([C@H](C)CCOc4ccc(C(=O)O)cn4)CC[C@@H]23)[C@@]2(C)CC[C@@H](O)C[C@@H]12` [The compound of formula I-H], in data set [1], the “Liver concentration 0.5 h” value is on record as 1959 nM, the “Liver/plasma concentration ratio 0.5 h” value came out at 24, the “Plasma concentration 0.5 h” value was 83 nM and the “Liver concentration 3 h” value is reported as 701 nM. For the same molecule, in data set [1], the “Liver/plasma concentration ratio 3 h” value is recorded as 16 and the “Plasma concentration 3 h” value was found to be 45 nM. Further, in data set [1] (setting [5]), the “drug concentrations in the liver compared with control compound” value is given as “higher than those of the control compound” and the “liver/plasma concentration ratios compared with control compound” value was “higher than those of the control compound”. In data set [2], the EC50 came out at 6 nM and the “FXR enzymatic activity Efficacy” value came to 249%. For the same molecule, in data set [4] (setting [6]), the exposure (AUC) stood at 2.34 µM·h, the Cmax was determined as 936 nM and the Tmax stood at 30 min. In addition, in data set [4], the “drug exposure compared with obeticholic acid” value is “higher than that of the control compound obeticholic acid” and the “peak concentration compared with obeticholic acid” value is given as “close to that of the control compound obeticholic acid”.
